Data: patent US12631620B2, “Methods of generating organoids for high throughput screening of drugs” (Yissum Research Development Company of the Hebrew …, priority 2019, dated 2026)
Where “and” joins values, the source holds several entries; their conditions need not be identical. Equal entries are not always repeated.

Columns and labels:
[1] = tested on: E6/E7^LOW human hepatocytes; assay: E6/E7LOW human hepatocyte viability assessment (LIVE/DEAD Cytotoxicity kit); type: cell-based; settings: 24 hours
Description: E6/E7^LOW human hepatocyte were cultured with different concentrations of compounds dissolved in culture medium for 24 hours. Cell viability was subsequently determined using LIVE/DEAD Cytotoxicity kit (Molecular Probes, USA) according to manufacturer directions. Briefly, cultures were incubated for 30 minutes with 2 μM calcein AM and 3 μM ethidium homodimer-1. Live cells were positive for green fluorescence due to hydrolysis of the acetoxymethyl ester group by intracellular esterases. Dead cells were positive for red fluorescence due to ethidium homodimer-1 binding intracellular DNA, possible in […]. Cellular viability was expressed as live over dead ratio and normalized based on negative (DMSO/DDW/EtOH) and positive (0.1% Saponin) controls. Fluorescence micrographs were analyzed for total fluorescence using ImageJ for 12 repeats for each sample. TC50 and TC20 concentrations were calculated using MATLAB® Curve Fitting Tool. Results were fitted to a sigmoidal curve (Prentice, 1976; Wenner et al., 2011). Error bars indicate ±SE.

[2] = patients on therapy; cited from earlier work
E6/E7^LOW hepatocytes = tested on: E6/E7^LOW hepatocytes
Description: According to some embodiments of the invention there is a sensor-integrated liver on chip array in which oxygen is monitored using two-frequency phase modulation of tissue-embedded phosphorescent microprobes, while glucose, lactate and temperature are measured in real time using microfluidic electrochemical sensors. Such a microphysiological platform permits the calculation of dynamic changes in metabolic fluxes around central carbon metabolism, producing a unique metabolic fingerprint of the liver's response to stimuli.

[3] = tested on: E6/E7^LOW human hepatocytes; assay: Apoptotic index, DeadEnd fluorometric TUNEL System; type: cell-based; settings: 24 hours exposure
HepG2/C3A organoids = assay: Real-time oxygen uptake toxicity (TC50, time to onset, lowest exposure level) in differentiated HepG2/C3A organoids; type: cell-based, human; settings: for TC50: oxygen uptake
Description: A suspension of HepG2/C3A cells and CPOx-50-RuP beads (Colibri Photonics, Germany) were suspended in 2.5 mg/ml rat tail collagen type I (Corning, USA) at a cell density of 7×10^5 cells/μl. A volume of 1.1 μl of the gel-imbedded mixture was injected into each microwell and left to form spontaneously until their metabolic activity stabilized around day 4.
Fifty-micrometer-diameter polystyrene microbeads were loaded with ruthenium-phenanthroline-based phosphorescence dye (CPOx-50-RuP). […] Oxygen acts as a quencher, leading to a decrease in decay time and signal intensity with increasing concentration. The present inventors chose to measure decay time, rather than signal intensity, as it is not sensitive to changes in probe concentration or excitation intensity over the course of the experiment. The signal was measured using the OPAL system (Colibri Photonics, Germany) that comprises of a control module, 532 nm LED excitation source, and a photomultiplier (PMT) detector mounted on the ocular of an IX81 Olympus microscope (Olympus, Japan). A filter cube with 531/40 (Ex), 555, 607/70 (Em) was inserted in the optical light path during measurements. To accurately measure decay time, the present inventors chose phase modulation in which sinusoidal amplitude-modulated light is shifted in phase due to oxygen quenching. To overcome the superposition of in-phase background fluorescence that alters the phase of the detected signal, the present inventors used a novel 53.5 and 31.3 kHz two-frequency phase modulation that allowed to screen out the interference [Schmalzlin E., et al., 2005. Biophysical journal, 89: 1339-1345; Papkovsky, D. B. et al., 2004. Methods in enzymology, 381, 715-735; Ast, C., et al., 2012. Sensors (Basel), 12: 7015-7032; Engelhard, S., et al., 2006. Analytical and bioanalytical chemistry, 384: 1107-1112; Prill, D. et al., 2016, Archives of toxicology, 90: 1181-1191]. Measurements were carried out by averaging five consecutive 4-s exposures. Measurements were taken every 15 minutes. Under similar conditions, 28 days of measurement of organoids was done with no apparent phototoxicity, signal drift, or relevant loss of signal intensity (Schmalzlin E., et al., 2005. Biophysical journal, 89: 1339-1345). Assessment of Cellular Toxicity and Time to Onset
Organoids were exposed to different concentrations of compounds dissolved in culture medium. Cell viability was determined by oxygen uptake following 24 hours of exposure unless otherwise noted. TC50 concentrations were determined using MATLAB by sigmoidal curve fitting (Wenner, M. M. et al., 2011, J Appl Physiol (1985), 111: 1703-1709; Prentice, R. L. et al., 1976, Biometrics, 32: 761-768). Time to onset was analyzed by MATLAB based on LPF and trend assessment.
To find the asymptotic concentration for which damage occurs only at infinite exposure time, the present inventors used a previously developed model for accumulative drug exposure (El-Kareh et al., 2000. Neoplasia, 2: 325-338; Currie, G. M. 2018. J Nucl Med Technol, DOI: 10.2967/jnmt.117.199588). The model is based on the steady-state dynamics of flux accumulation, using a linear first-order approximation of the cell membrane. The flux behavior is described by
where J(C) is the concentration dependent flux, Jmin is the minimal flux that will cause an effect, t is time of exposure and |τ is a drug-cell specific constant accounting reaction dynamics (Gowrishankar et al., 2003. Proceedings of the National Academy of Sciences of the United States of America, 100: 3203-3208; Kotnik T. et al., 2000. IEEE Trans Biomed Eng, 47: 1074-1081). In the present case, t is the Time to Onset (TTO) of damage creating a bi-asymptotic behavior. This adapted model is used to describe lowest exposure level (LEL) under first order, steady state assumptions, as
Real-time oxygen measurements were performed optically using on-chip lifetime-based luminescence quenching (LBLQ). […]

In the case of Cc1cn([C@H]2C=C[C@@H](CO)O2)c(=O)[nH]c1=O [Stavudine], the TC50 [1] is listed as 800 µM and 800 ± 60 µM, the “patients with elevated liver enzymes” value [2] is listed as 30% and the ATP production (E6/E7^LOW hepatocytes) is listed as “relatively unchanged”. The direct mitochondrial damage (E6/E7^LOW hepatocytes) was “no indication of direct mitochondrial damage”, the “metabolic fluxes (lipogenesis, glycolysis)” value (E6/E7^LOW hepatocytes) was “transient increase in lipogenesis followed by global suppression of both glycolysis and lipogenesis” and the increase in lipogenesis (E6/E7^LOW hepatocytes; flux balance analysis, below threshold of cellular damage, Valproate sustained, Stavudine transient) was 5%. The “time to onset of slow progressive damage post-exposure” value (E6/E7^LOW hepatocytes; human) was 15 to 20 h, the apoptosis [3] was “no evidence of apoptosis” and the TC50 (HepG2/C3A organoids; at 24 hours) was 4300 µM. The TC50 (HepG2/C3A organoids; at 42 hours) was 1700 µM and 1700 ± 400 µM, the “Time to onset (TTO) of response” value (HepG2/C3A organoids; dose-dependent range over concentrations tested) was 10 to 29 h and the “lowest exposure level (LEL)” value (HepG2/C3A organoids; horizontal asymptote, onset of damage at infinite time, ± standard error of curve fit) was 4 ± 1 µM.
